Assay results taken from PubChem BioAssay AID330 (DTP/NCI, 2004).
Values joined by “and” are separate entries in the source; they are usually repeats but may differ in a detail not shown here. Equal entries are not always repeated. Inconclusive results and toxic doses are left out. The calls were made as follows: active = survival T/C of 150% or more; inactive = T/C below 125% in these data. Peptide text beside a SMILES is read from it.

System: P388 leukemia ip, CD2F1 mice, survival T/C
Experiment: NCI In Vivo Anticancer Drug Screen. Data for tumor model P388 Leukemia (intraperitoneal) in CD2F1 (CDF1) mice
Conditions: endpoint: median survival time, higher = longer survival
How it was run: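 Mice carrying the transplanted tumor received test compound or vehicle. Survival was recorded in each group, and the value is the treated-group measurement divided by that of the vehicle-treated control group.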

[1] = dose: 50.0 mg/kg/injection, schedule: Q01DX009 (ip), vehicle: saline
[2] = dose: 100.0 mg/kg/injection, schedule: Q01DX009 (ip), vehicle: saline
[3] = dose: 200.0 mg/kg/injection, schedule: Q01DX009 (ip), vehicle: saline
[4] = dose: 50.0 mg/kg/injection, schedule: Q01DX009 (ip), vehicle: Klucel (hydroxypropylcellulose) (HPC)
[5] = dose: 100.0 mg/kg/injection, schedule: Q01DX009 (ip), vehicle: Klucel (hydroxypropylcellulose) (HPC)
[6] = dose: 200.0 mg/kg/injection, schedule: Q01DX009 (ip), vehicle: Klucel (hydroxypropylcellulose) (HPC)
[7] = dose: 60.0 mg/kg/injection, schedule: Q01DX005 (ip), vehicle: Klucel (hydroxypropylcellulose) (HPC)
[8] = dose: 120.0 mg/kg/injection, schedule: Q01DX005 (ip), vehicle: Klucel (hydroxypropylcellulose) (HPC)
[9] = dose: 240.0 mg/kg/injection, schedule: Q01DX005 (ip), vehicle: Klucel (hydroxypropylcellulose) (HPC)
[10] = dose: 60.0 mg/kg/injection, schedule: Q01DX005 (ip), vehicle: saline with Tween-80
[11] = dose: 120.0 mg/kg/injection, schedule: Q01DX005 (ip), vehicle: saline with Tween-80
[12] = dose: 50.0 mg/kg/injection, schedule: Q01DX005 (ip), vehicle: saline with Tween-80
[13] = dose: 100.0 mg/kg/injection, schedule: Q01DX005 (ip), vehicle: saline with Tween-80
[14] = dose: 200.0 mg/kg/injection, schedule: Q01DX005 (ip), vehicle: saline with Tween-80
[15] = dose: 50.0 mg/kg/injection, schedule: Q01DX009 (ip), vehicle: saline with Tween-80
[16] = dose: 100.0 mg/kg/injection, schedule: Q01DX009 (ip), vehicle: saline with Tween-80
[17] = dose: 200.0 mg/kg/injection, schedule: Q01DX009 (ip), vehicle: saline with Tween-80
[18] = dose: 240.0 mg/kg/injection, schedule: Q01DX005 (ip), vehicle: saline with Tween-80
[19] = dose: 25.0 mg/kg/injection, schedule: Q01DX009 (ip), vehicle: Klucel (hydroxypropylcellulose) (HPC)
[20] = dose: 25.0 mg/kg/injection, schedule: Q01DX009 (ip), vehicle: saline with Tween-80
[21] = dose: 50.0 mg/kg/injection, schedule: Q01DX005 (ip), vehicle: saline
[22] = dose: 100.0 mg/kg/injection, schedule: Q01DX005 (ip), vehicle: saline
[23] = dose: 200.0 mg/kg/injection, schedule: Q01DX005 (ip), vehicle: saline

Measured: T/C

COC(=O)C1(C(=O)OC)CCCC2=NOC3CCC1C23 (configuration not stated)
inactive: dose: 6.25 mg/kg/injection, schedule: Q01DX002 (ip), vehicle: Klucel (hydroxypropylcellulose) (HPC) 107 % of control | dose: 12.5 mg/kg/injection, schedule: Q01DX002 (ip), vehicle: Klucel (hydroxypropylcellulose) (HPC) 100 % of control | dose: 25.0 mg/kg/injection, schedule: Q01DX002 (ip), vehicle: Klucel (hydroxypropylcellulose) (HPC) 93 % of control

O=C(c1ccc(F)cc1)C1CCN(CCCn2c(=O)[nH]c3ccccc32)CC1
inactive: [1] 100 % of control | [2] 101 % of control | [3] 100 % of control

CC1CC(c2ccccc2)C(c2ccc(Cl)cc2)C(=O)O1 (configuration not stated)
inactive: [4] 96 % of control | [5] 100 % of control | [6] 100 % of control

Cc1nnc(SCC2=C(C(=O)O)N3C(=O)C(NC(=O)Cn4cnnn4)C3SC2)s1 (configuration not stated)
inactive: dose: 25.0 mg/kg/injection, schedule: Q01DX009 (ip), vehicle: saline 112 % of control | dose: 400.0 mg/kg/injection, schedule: Q01DX009 (ip), vehicle: saline 112 % of control

CCCCCCC1C(C#N)C(=O)NC(=O)C1C#N (configuration not stated)
inactive: [4] 96 % of control | [5] 95 % of control | [6] 93 % of control

CC(O)CN1C=NC(C)C1 (configuration not stated)
inactive: [1] 95 % of control | [2] 100 % of control | [3] 103 % of control

CN1C(=O)C(Br)(Br)CC1c1cccnc1 (configuration not stated)
inactive: [7] 101 % of control | [8] 109 % of control | [9] 100 % of control

c1ccc(-c2ccc[n+](CC[n+]3cccc(-c4ccccn4)c3)c2)nc1
inactive: [10] 104 % of control | [11] 100 % of control

CC(=O)NC(Cc1ccccc1)C(=O)NC(Cc1ccccc1)C(=O)O (stereo not drawn) (Ac-Phe-Phe-OH; configuration not given here)
inactive: [12] 107 % of control | [13] 103 % of control | [14] 94 % of control

Cc1cc(OC2OC(CO)C(OC3OC(CO)C(O)C(O)C3O)C(O)C2O)c2c(c1)C(=O)c1cccc(O)c1C2=O (configuration not stated)
inactive: [15] 104 % of control | [16] 104 % of control | [17] 105 % of control

C/C(=C/C(=O)Nc1ccccc1)Nc1onc(C)c1C
inactive: [10] 102 % of control | [11] 96 % of control | [18] 90 % of control

O=C1NC(=O)NC(C(=O)O)N1
inactive: dose: 12.5 mg/kg/injection, schedule: Q01DX009 (ip), vehicle: Klucel (hydroxypropylcellulose) (HPC) 105 % of control | [19] 105 % of control | [20] 94 % of control | dose: 50.0 mg/kg/injection, schedule: Q01DX009 (ip), vehicle: DMSO 103 % of control | [4] 104 % of control | [15] 100 % of control | dose: 100.0 mg/kg/injection, schedule: Q01DX009 (ip), vehicle: DMSO 100 % of control | [5] 104 % of control | [16] 100 % of control | dose: 200.0 mg/kg/injection, schedule: Q01DX009 (ip), vehicle: DMSO 97 % of control | [6] 115 % of control | [17] 95 % of control

CCCSCCC(C)(N)C(=O)O (configuration not stated)
inactive: [19] 98 % of control | [4] 91 % of control | [5] 107 % of control | [6] 96 % of control

Cc1cc2c(cc1C)NC1=C(N2)OC(c2cccc(O)c2)C1=O (configuration not stated)
inactive: dose: 7.5 mg/kg/injection, schedule: Q01DX005 (ip), vehicle: Klucel (hydroxypropylcellulose) (HPC) 104 % of control | dose: 15.0 mg/kg/injection, schedule: Q01DX005 (ip), vehicle: Klucel (hydroxypropylcellulose) (HPC) 101 % of control | dose: 30.0 mg/kg/injection, schedule: Q01DX005 (ip), vehicle: Klucel (hydroxypropylcellulose) (HPC) 110 % of control

O=C1CCCc2[nH]c3ccc(F)cc3c21
inactive: [12] 91 % of control | [13] 90 % of control | [14] 88 % of control

CC(=O)Nc1ccc(C(=O)N/N=C/c2ccc(O)cc2)cc1
inactive: [21] 99 % of control | [22] 102 % of control | [23] 100 % of control

O=C(OCc1ccccc1)n1nnc2ccccc21
inactive: [10] 113 % of control | [11] 105 % of control | [18] 111 % of control

CC(=O)OC(C)C(=O)NCC(C)O (configuration not stated)
inactive: dose: 25.0 mg/kg/injection, schedule: Q01DX005 (ip), vehicle: saline 100 % of control | [21] 103 % of control | [22] 98 % of control | [23] 100 % of control

COC(=O)C#CC(N)=O
inactive: dose: 1.25 mg/kg/injection, schedule: Q01DX009 (ip), vehicle: saline sonified 113 % of control | dose: 1.65 mg/kg/injection, schedule: Q01DX009 (ip), vehicle: saline with Tween-80 118 % of control | dose: 2.5 mg/kg/injection, schedule: Q01DX009 (ip), vehicle: saline with Tween-80 118 % of control | dose: 3.75 mg/kg/injection, schedule: Q01DX009 (ip), vehicle: saline with Tween-80 118 % of control | dose: 5.0 mg/kg/injection, schedule: Q01DX009 (ip), vehicle: saline sonified 122 % of control

CC(=O)OC1CC(C(=O)c2ccccc2)N2N=CN(c3ccccc3)C12 (configuration not stated)
inactive: [7] 103 % of control | [8] 102 % of control | [9] 104 % of control

CCN(CC)CCOc1cccc(C)c1C
inactive: [20] 100 % of control | [15] 95 % of control | [16] 104 % of control

COc1cccc(N=Nc2c(-c3ccccc3)nn(C(=S)S)c2C)c1
inactive: [12] 93 % of control | [13] 93 % of control | [14] 91 % of control

CN(C)CCN1C(=O)C2C3CCC(C)(O3)C2C1=O (configuration not stated)
inactive: [21] 99 % of control | [22] 104 % of control | [23] 103 % of control

CCC1=CCC2C(=O)c3cc4ccccc4cc3C(=O)C2C1 (configuration not stated)
inactive: dose: 6.25 mg/kg/injection, schedule: Q01DX005 (ip), vehicle: saline with Tween-80 103 % of control | dose: 12.5 mg/kg/injection, schedule: Q01DX005 (ip), vehicle: saline with Tween-80 108 % of control | dose: 25.0 mg/kg/injection, schedule: Q01DX005 (ip), vehicle: saline with Tween-80 108 % of control and 93 % of control

O=[N+]([O-])Nc1ccccn1
inactive: dose: 100.0 mg/kg/injection, schedule: Q04DX002 (ip), vehicle: saline 114 % of control | dose: 200.0 mg/kg/injection, schedule: Q04DX002 (ip), vehicle: saline 110 % of control | dose: 400.0 mg/kg/injection, schedule: Q04DX002 (ip), vehicle: saline 97 % of control

COc1cccc(N=Nc2c(C)nn(C(=S)S)c2C)c1
inactive: [12] 101 % of control | [13] 100 % of control | [14] 94 % of control

CC1(C)C(/C=C\c2ccc(O)cc2)=Nc2ccccc21
inactive: dose: 3.12 mg/kg/injection, schedule: Q01DX009 (ip), vehicle: saline with Tween-80 105 % of control | dose: 6.25 mg/kg/injection, schedule: Q01DX009 (ip), vehicle: saline with Tween-80 100 % of control | dose: 12.5 mg/kg/injection, schedule: Q01DX009 (ip), vehicle: saline with Tween-80 108 % of control
